Earlier results in patent US20250261646A1, “SOLID COMPOSITION AS A SOLUBLE PRECURSOR OF AN ECO-FRIENDLY AND EFFECTIVE METAL-BASED BIOCIDE, PROCESS AND USE THEREOF” (BIOREM ENGINEERING SA, priority 2022, published 2025).

Details: for comparison

[O]=[Zn] [ZnO, zinc(II) oxide]
solubility: 4 µg/mL
